Test results as given in patent US12504425B2, “Blood vessel model” (FUJIFILM CORPORATION, priority 2017, dated 2025).

Tests used:
[1] = test system: layer of rat vascular endothelial cells and layer of rat smooth muscle cells on porous membrane; experiment: fluorescent bead permeability test of cell-layer-affixed blood vessel model after drug exposure; format: cell-based; settings: drug 50 μg/ml, 0.7 μL/min, one day, both microchannels, 4 μm beads 1.81×10^6 beads/ml in upper microchannel
Method: In example 2 and comparative example 2, Rat Arterial Endothelial Cells produced by Angio-Proteomie were employed for the rat vascular endothelial cells, and Rat Aortic Smooth Muscle Cells produced by Lonza were employed for the rat smooth muscle cells. The lower microchannel was initially seeded with 100 μL of a cell suspension of rat smooth muscle cells having a cell concentration of 3×10^6 cells/ml. After a day of cultivation, the upper microchannel was seeded with 100 μL of a cell suspension of rat vascular endothelial cells having a cell concentration of 3×10^6 cells/ml. After two days of cultivation, the cell-layer-affixed blood vessel models of example 2 and comparative example 2 were obtained.
A culture medium dilution containing fluorescent beads at a concentration of 1.81×10^6 beads/ml for a tracer was run through the upper microchannel of the cell-layer-affixed blood vessel models produced in example 2 and comparative example 2, and a culture medium not containing fluorescent beads was run through the lower microchannel. […]

[2] = test system: layer of rat vascular endothelial cells and layer of rat smooth muscle cells on porous membrane; experiment: FITC-Dextran permeability test of cell-layer-affixed blood vessel model after drug exposure; format: cell-based; settings: drug 500 ng/ml, 0.7 μL/min, one day, upper microchannel, imaged two minutes after running FITC-Dextran
Method: The cells employed in example 3 and comparative example 3 were the same as that employed in example 2 and comparative example 2. To form the cell layers, the lower microchannel was initially seeded with 100 μL of a cell suspension of rat smooth muscle cells having a cell concentration of 3×10^6 cells/ml. After a day of cultivation, the upper microchannel was seeded with 100 μL of a cell suspension of rat vascular endothelial cells having a cell concentration of 1×10^6 cells/ml and cultivated for six hours. Then, a respective culture medium (rat EC medium/SMC medium) was run through each channel with a rate of fluid delivery of 0.7 μL/min using a pump. After two days of cultivation, the cell-layer-affixed blood vessel models of example 3 and comparative example 3 were obtained. […]
Two minutes after running the FITC-Dextran through the channels, an inverted microscope (product name Eclipse Ts2, made by Nikon) was used to image fluorescence in the microchannels. […]
After drug exposure, a FITC-Dextran permeability test was performed using the same method as the FITC-Dextran permeability test for the cell-layer-affixed blood vessel models described above. […] In the cell-layer-affixed blood vessel model of comparative example 3, the fluorescence observed in the lower microchannel was minimal. […]

| FITC-Dextran fluorescence observed in the lower microchannel ([2]; blood vessel model of comparative example 3 (track-etched porous membrane)) | Molecule | number of fluorescent beads inside the lower microchannel ([1]; blood vessel model of comparative example 2 (track-etched porous membrane)) | number of fluorescent beads inside the lower microchannel ([1]; blood vessel model of example 2 (honeycomb porous membrane)) | FITC-Dextran fluorescence observed in the microchannels ([2]; blood vessel model of example 3 (honeycomb porous membrane)) |
| --- | --- | --- | --- | --- |
| – | cytochalasin | 6.7×10^3 beads/ml | 1.7×10^5 beads/ml | – |
| minimal | Oc1ccc(C2CNCCc3c2cc(O)c(O)c3Cl)cc1 (stereo not shown) [fenoldopam] | – | – | fluorescence was observed over a wide area, including in the lower microchannel |
